Patent US20250100995A1, “CEREBLON BINDING COMPOUNDS, COMPOSITIONS THEREOF, AND METHODS OF TREATMENT THEREWITH” (CELGENE CORPORATION, priority 2021, published 2025)

Target: T1, AR (Homo sapiens, UniProt P10275)
T1 construct: endogenous in cells; host or cells: VCaP cells
T1 sequence (P10275 1-920): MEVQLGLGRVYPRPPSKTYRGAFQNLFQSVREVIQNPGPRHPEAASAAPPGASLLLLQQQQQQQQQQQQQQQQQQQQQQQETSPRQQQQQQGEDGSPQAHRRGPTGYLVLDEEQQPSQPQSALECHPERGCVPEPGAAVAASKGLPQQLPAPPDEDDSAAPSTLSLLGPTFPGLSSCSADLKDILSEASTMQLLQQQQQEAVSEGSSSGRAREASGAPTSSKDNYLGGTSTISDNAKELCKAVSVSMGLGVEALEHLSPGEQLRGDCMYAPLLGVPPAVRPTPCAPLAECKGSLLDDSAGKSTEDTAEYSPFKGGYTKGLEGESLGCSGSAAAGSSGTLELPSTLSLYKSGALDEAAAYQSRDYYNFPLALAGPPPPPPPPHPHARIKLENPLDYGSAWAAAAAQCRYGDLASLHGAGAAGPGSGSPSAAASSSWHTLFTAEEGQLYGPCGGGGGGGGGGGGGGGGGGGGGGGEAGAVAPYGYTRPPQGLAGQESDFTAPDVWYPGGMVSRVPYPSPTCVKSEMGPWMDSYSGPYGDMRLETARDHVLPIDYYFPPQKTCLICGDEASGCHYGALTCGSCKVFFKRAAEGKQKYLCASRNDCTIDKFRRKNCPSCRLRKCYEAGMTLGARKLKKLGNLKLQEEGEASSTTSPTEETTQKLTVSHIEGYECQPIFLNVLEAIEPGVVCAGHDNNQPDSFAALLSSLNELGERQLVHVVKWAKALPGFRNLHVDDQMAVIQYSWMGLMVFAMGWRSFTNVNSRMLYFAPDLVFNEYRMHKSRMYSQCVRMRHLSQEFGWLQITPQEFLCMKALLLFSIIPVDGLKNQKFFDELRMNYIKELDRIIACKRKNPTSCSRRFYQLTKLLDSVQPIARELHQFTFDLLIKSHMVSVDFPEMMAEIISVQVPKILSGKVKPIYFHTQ
Assay: VCAP AR Degradation Assay
Assay type: cell-based
Settings: VCaP cells, 24 h, AR ELISA; for DC50: concentration of compound when AR level = 50% of DMSO control; for Y: lowest measured AR level normalized to DMSO control (AR degradation efficiency)
Protocol: VCAP AR Degradation Assay. Test compounds were pre-dispensed into a Corning CellBind 96-well clear bottom plate (Cat #3300) using an acoustic dispenser to make a 10-point concentration series at 1:3 dilution for each compound. The final top concentration of each compound was 5 μM. DMSO at a final concentration of 0.1% was used as a control. VCaP cells cultured in DMEM with 8% fetal bovine serum (FBS) were seeded at 50K cells per well in a 200 μL volume into the compound plate and incubated at 37° C. in a CO2 incubator for 24 h. The medium was carefully removed from the cells and the plate was placed on ice. One hundred μL of ice-cold 1× cell lysis buffer from Cell Signaling Technologies (Cat #9803) was added to each well of the cells and the plate was incubated at 4° C. on a shaker for 1 h. Fifteen μL of cell lysate was used for AR ELISA detection using a PathScan Total Sandwich AR ELISA kit (Cell Signaling Technology, Cat #12580). AR levels in compound-treated wells were normalized to that of DMSO control and expressed as percent of control (PoC) (y). A Four Parameter Logistic Model (Sigmoidal Dose-Response Model) was used to determine the compound's DC50, and EC50, using the following equation: […]
The lowest measured AR level normalized to DMSO control in response to compound treatment, termed Y value, was used to characterize the compound-mediated AR degradation efficiency.

SMILES | DC50 [nM] | Y
C[C@@H]1C[C@H](OCCO[C@H]2CC[C@H](N3C(=S)N(c4ccc(C#N)c(C(F)(F)F)c4)C(=O)C3(C)C)CC2)C[C@H](C)N1CC(=O)Nc1cc(C2CCC(=O)NC2=O)ccn1 (stereo partly drawn) [Cmpd 29, 2-((2R,4r,6S)-4-(2-(((trans)-4-(3-(4-Cyano-3-(trifluoromethyl)phenyl)-5,5-dimethyl-4-oxo-2-thioxoimidazolidin-1-yl)cyclohexyl)oxy)ethoxy)-2,6-dimethylpiperidin-1-yl)-N-(4-(2,6-dioxopiperidin-3-yl)pyridin-2-yl)acetamide] | 5 to 50 | ** (20%<Y≤40%)
C[C@@H]1C[C@H](OCC[C@H]2CC[C@H](N3C(=S)N(c4cnc(C#N)c(C(F)(F)F)c4)C(=O)C3(C)C)CC2)C[C@H](C)N1CC(=O)Nc1cc(C2CCC(=O)NC2=O)ccn1 (stereo partly drawn) [Cmpd 30, 2-((2R,4r,6S)-4-(2-((trans)-4-(3-(6-Cyano-5-(trifluoromethyl)pyridin-3-yl)-5,5-dimethyl-4-oxo-2-thioxoimidazolidin-1-yl)cyclohexyl)ethoxy)-2,6-dimethylpiperidin-1-yl)-N-(4-(2,6-dioxopiperidin-3-yl)pyridin-2-yl)acetamide] | 5 to 50 | * (0<Y≤20%)
